Data on two compounds can be found in article PMC7997166, “In Silico Plasma Protein Binding Studies of Selected Group of Drugs Using TLC and HPLC Retention Data” (Pharmaceuticals, 2021).

One data set deals with bovine serum albumin (Bos taurus, UniProt P02769). Description: NP TLC on BSA-impregnated silica gel plates (retardation factor Rf). It is filed as binding. The note with it: silica gel 60 F254 impregnated with BSA, mobile phase acetonitrile:acetate buffer pH 7.4:methanol 60:20:20, λ = 240 nm.
Data set [1] is described as follows: NP TLC on control silica gel plates without protein modifier (Rf). It is filed as physicochemical. To be noted: silica gel 60 F254 without BSA (control), mobile phase acetonitrile:acetate buffer pH 7.4:methanol 60:20:20, λ = 240 nm. On the procedure: TLC was performed in normal and reversed phase (NP and RP) systems. Aluminum plates with silica gel (Merck, TLC Silica gel 60 F254) were used in the NP system and aluminum plates with silanized silica gel—RP (Merck, TLC Silica gel 60 RP-2 F254, silanized) were used in the RP system. The stationary phase surface modifying protein was bovine serum albumin. A 2-mg/mL solution of BSA (Sigma Aldrich, Bovine serum albumin lyophilised powder) in distilled water was applied on the surface using Desaga Sprayer SG 1 and air-dried.
Drug solutions in methanol (1 mg/mL) were applied on the plates with the Desaga HPTLC-Applicator AS 30, then the plates were developed in the mobile phase composed of acetonitrile, acetate buffer pH 7.4 and methanol, 60:20:20 (v/v/v). All solvents used—water, methanol and acetonitrile—were purchased from J.T. Baker (HPLC Gradient Grade). The acetate buffer (20mM) was prepared by dissolving 1.54 g of ammonium acetate in 1 L of distilled water. The pH was then adjusted with concentrated ammonia solution.
The mobility of the compounds was initially determined on NP and RP plates without the participation of the protein modifier. These were labeled as controls (C). The obtained retardation factor (Rf) values could be used to determine the composition of the mobile phase, as well as the specific effect of the protein modifier on the mobility of the APIs. […]

A further data set has as its target human serum albumin (Homo sapiens, UniProt P02768). Description: HPLC on column with immobilized human serum albumin (CHIRALPAK HSA). It is filed as binding. To be noted: mobile phase acetate buffer pH 7.4:acetonitrile:methanol 85:10:5; flow 0.9 mL/min; 25 degrees Celsius; void time marker methanol t = 1.63.

Chain of human serum albumin (P02768 25-609): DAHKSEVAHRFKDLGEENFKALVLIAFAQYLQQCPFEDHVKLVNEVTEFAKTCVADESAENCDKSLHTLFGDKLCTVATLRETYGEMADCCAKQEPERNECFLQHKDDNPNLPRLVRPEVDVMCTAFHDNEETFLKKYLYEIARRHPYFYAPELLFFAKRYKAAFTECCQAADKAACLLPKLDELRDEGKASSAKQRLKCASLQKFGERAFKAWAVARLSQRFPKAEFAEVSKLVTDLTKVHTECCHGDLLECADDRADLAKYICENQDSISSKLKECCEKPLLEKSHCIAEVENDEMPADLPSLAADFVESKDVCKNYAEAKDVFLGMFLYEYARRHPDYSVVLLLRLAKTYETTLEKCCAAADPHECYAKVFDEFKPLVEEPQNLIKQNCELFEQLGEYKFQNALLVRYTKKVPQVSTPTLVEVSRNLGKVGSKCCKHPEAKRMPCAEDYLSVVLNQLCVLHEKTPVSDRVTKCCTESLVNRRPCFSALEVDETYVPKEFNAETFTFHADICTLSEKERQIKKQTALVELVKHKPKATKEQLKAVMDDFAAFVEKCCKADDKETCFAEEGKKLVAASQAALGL
Chain of bovine serum albumin (P02769 25-607): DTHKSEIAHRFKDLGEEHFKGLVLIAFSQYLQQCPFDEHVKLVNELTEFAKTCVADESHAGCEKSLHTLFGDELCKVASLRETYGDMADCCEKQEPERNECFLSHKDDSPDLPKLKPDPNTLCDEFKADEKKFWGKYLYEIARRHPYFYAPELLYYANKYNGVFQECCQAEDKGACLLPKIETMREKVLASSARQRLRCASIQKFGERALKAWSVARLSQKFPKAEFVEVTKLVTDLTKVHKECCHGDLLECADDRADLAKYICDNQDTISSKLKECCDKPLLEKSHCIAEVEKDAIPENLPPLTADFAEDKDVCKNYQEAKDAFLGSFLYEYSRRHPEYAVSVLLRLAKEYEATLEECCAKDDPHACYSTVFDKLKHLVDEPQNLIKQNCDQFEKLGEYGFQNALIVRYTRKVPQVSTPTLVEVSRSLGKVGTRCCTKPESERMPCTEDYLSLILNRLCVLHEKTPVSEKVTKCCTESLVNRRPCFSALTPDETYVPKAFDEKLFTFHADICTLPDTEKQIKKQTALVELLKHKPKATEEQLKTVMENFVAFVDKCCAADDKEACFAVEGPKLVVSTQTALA
Description for human serum albumin: HPLC analysis was performed on a Perkin Elmer Series 200 apparatus with a UV-VIS spectrometer for detection with an analytical wavelength of 210 nm. The mobile phase consisted of an acetate buffer with pH 7.4:acetonitrile:methanol, 85:10:5 (v/v/v). All solvents used—water, methanol and acetonitrile—were purchased from J.T. Baker (HPLC gradient class). The acetate buffer (10 mM) was prepared by dissolving 0.77 g of ammonium acetate in 1 L of distilled water. The pH was then adjusted with a concentrated ammonia solution.
API solutions in methanol (1 mg/mL, volume of injection: 10 μL) were injected into the HSA column using an automatic autosampler. The flow rate of the mobile phase was 0.9 mL/min. Since the column could not be thermostated, the room temperature was kept constant at 25 degrees Celsius by air conditioning. Chromatographic data (retention factor k and derivative: log k) were obtained for 129 APIs using the TotalChrom software connected to HPLC. Factor k, which is the ratio between the amount of analyte in the stationary phase to the amount in the mobile phase, was obtained from the equation k = (tR − tM)/tM where tR is retention time and tM is void time. The experiment was then repeated, and the collected retention factors (k) were means values from both series.

Consider `CN(C)CCC=C1c2ccccc2COc2ccccc21` [doxepin], for which the “Rf, BSA-impregnated NP plate” value on bovine serum albumin stood at 0.31. The “Rf, control NP plate” value in data set [1] worked out at 0.34.

For the compound `CC(C)c1nc(N(C)S(C)(=O)=O)nc(-c2ccc(F)cc2)c1/C=C/[C@@H](O)C[C@@H](O)CC(=O)O` [rosuvastatin], the “retention time (t) on HPLC column with immobilized HSA” value on human serum albumin is on record as 3.71.
